In ChEMBL document CHEMBL6109109, “Fatty acid binding protein 5 inhibitors as novel anticancer agents against metastatic castration-resistant prostate cancer” (Bioorg Med Chem, 2025):

Assays:
Assay type in all cases: functional
[1] = Synergistic anticancer activity against mouse RCaP cells assessed as cell growth inhibition at 20 uM measured after 72 hrs in presence of 10 uM of topotecan by MTT assay relative to control; details: read-out: GI
[2] = system: PC-3; assay: Synergistic anticancer activity against human PC-3 cells assessed as cell growth inhibition at 10 uM measured after 72 hrs in presence of 0.0001 uM of topotecan by MTT assay relative to control; details: read-out: GI
[3] = Synergistic anticancer activity against mouse RCaP cells assessed as cell growth inhibition at 10 uM measured after 72 hrs in presence of 0.001 uM of topotecan by MTT assay relative to control; details: read-out: GI
[4] = Synergistic anticancer activity against mouse RCaP cells assessed as cell growth inhibition at […] measured after 72 hrs in presence of 10 uM of topotecan by MTT assay relative to control; details: dose 2.5 µM, read-out: GI
[5] = Synergistic anticancer activity against mouse RCaP cells assessed as cell growth inhibition at 5 uM measured after 72 hrs in presence of 10 uM of topotecan by MTT assay relative to control; details: read-out: GI
[6] = system: PC-3; assay: Synergistic anticancer activity against human PC-3 cells assessed as cell growth inhibition at 20 uM measured after 72 hrs in presence of 0.00001 uM of topotecan by MTT assay relative to control; details: read-out: GI
[7] = Synergistic anticancer activity against mouse RCaP cells assessed as cell growth inhibition at […] measured after 72 hrs in presence of 0.0001 uM of topotecan by MTT assay relative to control; details: dose 2.5 µM, read-out: GI
[8] = system: PC-3; assay: Synergistic anticancer activity against human PC-3 cells assessed as cell growth inhibition at 10 uM measured after 72 hrs in presence of 0.1 uM of topotecan by MTT assay relative to control; details: read-out: GI
[9] = Synergistic anticancer activity against mouse RCaP cells assessed as cell growth inhibition at 10 uM measured after 72 hrs in presence of 1 uM of topotecan by MTT assay relative to control; details: read-out: GI
[10] = system: PC-3; assay: Synergistic anticancer activity against human PC-3 cells assessed as cell growth inhibition at 20 uM measured after 72 hrs in presence of 10 uM of topotecan by MTT assay relative to control; details: read-out: GI
[11] = system: PC-3; assay: Synergistic anticancer activity against human PC-3 cells assessed as cell growth inhibition at 5 uM measured after 72 hrs in presence of 1 uM of topotecan by MTT assay relative to control; details: read-out: GI
[12] = system: PC-3; assay: Cytotoxicity against human PC-3 cells assessed as cell growth inhibition at 5 uM measured after 72 hrs by MTT assay relative to control; details: read-out: GI
[13] = system: PC-3; assay: Synergistic anticancer activity against human PC-3 cells assessed as cell growth inhibition at 5 uM measured after 72 hrs in presence of 0.0001 uM of topotecan by MTT assay relative to control; details: read-out: GI
[14] = Synergistic anticancer activity against mouse RCaP cells assessed as cell growth inhibition at 5 uM measured after 72 hrs in presence of 0.0001 uM of topotecan by MTT assay relative to control; details: read-out: GI
[15] = system: PC-3; assay: Cytotoxicity against human PC-3 cells assessed as cell growth inhibition at 10 uM measured after 72 hrs by MTT assay relative to control; details: read-out: GI
[16] = system: PC-3; assay: Synergistic anticancer activity against human PC-3 cells assessed as cell growth inhibition at 20 uM measured after 72 hrs in presence of 0.01 uM of topotecan by MTT assay relative to control; details: read-out: GI
[17] = system: PC-3; assay: Synergistic anticancer activity against human PC-3 cells assessed as cell growth inhibition at 5 uM measured after 72 hrs in presence of 0.01 uM of topotecan by MTT assay relative to control; details: read-out: GI
[18] = system: PC-3; assay: Synergistic anticancer activity against human PC-3 cells assessed as cell growth inhibition at 20 uM measured after 72 hrs in presence of 0.001 uM of topotecan by MTT assay relative to control; details: read-out: GI
[19] = Synergistic anticancer activity against mouse RCaP cells assessed as cell growth inhibition at 5 uM measured after 72 hrs in presence of 0.001 uM of topotecan by MTT assay relative to control; details: read-out: GI
[20] = Synergistic anticancer activity against mouse RCaP cells assessed as cell growth inhibition at […] measured after 72 hrs in presence of 1 uM of topotecan by MTT assay relative to control; details: dose 2.5 µM, read-out: GI
[21] = Synergistic anticancer activity against mouse RCaP cells assessed as cell growth inhibition at 20 uM measured after 72 hrs in presence of 0.0001 uM of topotecan by MTT assay relative to control; details: read-out: GI
[22] = Synergistic anticancer activity against mouse RCaP cells assessed as cell growth inhibition at 10 uM measured after 72 hrs in presence of 0.01 uM of topotecan by MTT assay relative to control; details: read-out: GI
[23] = Synergistic anticancer activity against mouse RCaP cells assessed as cell growth inhibition at […] measured after 72 hrs in presence of 0.01 uM of topotecan by MTT assay relative to control; details: dose 2.5 µM, read-out: GI
[24] = Cytotoxicity against mouse RCaP cells assessed as cell growth inhibition at 5 uM measured after 72 hrs by MTT assay relative to control; details: read-out: GI
[25] = Synergistic anticancer activity against mouse RCaP cells assessed as cell growth inhibition at […] measured after 72 hrs in presence of 0.1 uM of topotecan by MTT assay relative to control; details: dose 2.5 µM, read-out: GI
[26] = Cytotoxicity against mouse RCaP cells assessed as cell growth inhibition at 10 uM measured after 72 hrs by MTT assay relative to control; details: read-out: GI
[27] = system: PC-3; assay: Synergistic anticancer activity against human PC-3 cells assessed as cell growth inhibition at 10 uM measured after 72 hrs in presence of 1 uM of topotecan by MTT assay relative to control; details: read-out: GI
[28] = system: PC-3; assay: Synergistic anticancer activity against human PC-3 cells assessed as cell growth inhibition at 20 uM measured after 72 hrs in presence of 0.1 uM of topotecan by MTT assay relative to control; details: read-out: GI
[29] = system: PC-3; assay: Synergistic anticancer activity against human PC-3 cells assessed as cell growth inhibition at 10 uM measured after 72 hrs in presence of 0.00001 uM of topotecan by MTT assay relative to control; details: read-out: GI
[30] = Cytotoxicity against mouse RCaP cells assessed as cell growth inhibition at […] measured after 72 hrs by MTT assay relative to control; details: dose 2.5 µM, read-out: GI
[31] = Synergistic anticancer activity against mouse RCaP cells assessed as cell growth inhibition at 20 uM measured after 72 hrs in presence of 0.01 uM of topotecan by MTT assay relative to control; details: read-out: GI
[32] = Synergistic anticancer activity against mouse RCaP cells assessed as cell growth inhibition at […] measured after 72 hrs in presence of 0.00001 uM of topotecan by MTT assay relative to control; details: dose 2.5 µM, read-out: GI
[33] = system: PC-3; assay: Synergistic anticancer activity against human PC-3 cells assessed as cell growth inhibition at 10 uM measured after 72 hrs in presence of 10 uM of topotecan by MTT assay relative to control; details: read-out: GI
[34] = system: PC-3; assay: Synergistic anticancer activity against human PC-3 cells assessed as cell growth inhibition at 10 uM measured after 72 hrs in presence of 0.01 uM of topotecan by MTT assay relative to control; details: read-out: GI
[35] = Synergistic anticancer activity against mouse RCaP cells assessed as cell growth inhibition at 20 uM measured after 72 hrs in presence of 0.001 uM of topotecan by MTT assay relative to control; details: read-out: GI

COc1ccccc1[C@H]1[C@H](C(=O)O)[C@H](c2ccccc2OC)[C@H]1C(=O)OCC1c2ccccc2-c2ccccc21
inhibition of growth at 20 µM [1]: 99.3% | inhibition of growth at 10 µM [2]: 59.3% | inhibition of growth at 10 µM [3]: 76.7% | inhibition of growth at […] [4]: 99.6% | inhibition of growth at 5 µM [5]: 99.4% | inhibition of growth at 20 µM [6]: 99.3% | inhibition of growth at […] [7]: -4.8% | inhibition of growth at 10 µM [8]: 66.8% | inhibition of growth at 10 µM [9]: 98.3% | inhibition of growth at 20 µM [10]: 92.3% | inhibition of growth at 5 µM [11]: 81% | inhibition of growth at 5 µM [12]: 7.5% | inhibition of growth at 5 µM [13]: 27.5% | inhibition of growth at 5 µM [14]: 17.6% | inhibition of growth at 10 µM [15]: 30.1% | inhibition of growth at 20 µM [16]: 99.8% | inhibition of growth at 5 µM [17]: 34.6% | inhibition of growth at 20 µM [18]: 99.8% | inhibition of growth at 5 µM [19]: 32.3% | inhibition of growth at […] [20]: 98.1% | inhibition of growth at 20 µM [21]: 97.5% | inhibition of growth at 10 µM [22]: 75.2% | inhibition of growth at […] [23]: 11.7% | inhibition of growth at 5 µM [24]: 8.67% | inhibition of growth at […] [25]: 86.6% | inhibition of growth at 10 µM [26]: 64.9% | inhibition of growth at 10 µM [27]: 82.2% | inhibition of growth at 20 µM [28]: 99.8% | inhibition of growth at 10 µM [29]: 56.3% | inhibition of growth at […] [30]: 5.2% | inhibition of growth at 20 µM [31]: 98.2% | inhibition of growth at […] [32]: 0.97% | inhibition of growth at 10 µM [33]: 86.2% | inhibition of growth at 10 µM [34]: 64.8% | inhibition of growth at 20 µM [35]: 98.5%

COc1ccccc1[C@H]1[C@H](C(=O)O)[C@H](c2ccccc2OC)[C@H]1C(=O)Oc1cc(-c2ccc3c(c2)OCO3)ccc1-c1ccccc1
inhibition of growth at 20 µM [1]: 100% | inhibition of growth at 10 µM [2]: 67.7% | inhibition of growth at 10 µM [3]: 88.4% | inhibition of growth at […] [4]: 98.9% | inhibition of growth at 5 µM [5]: 99.1% | inhibition of growth at 20 µM [6]: 99.7% | inhibition of growth at […] [7]: -3.7% | inhibition of growth at 10 µM [8]: 81.4% | inhibition of growth at 10 µM [9]: 94.8% | inhibition of growth at 20 µM [10]: 98.8% | inhibition of growth at 5 µM [11]: 89.8% | inhibition of growth at 5 µM [12]: 30.7% | inhibition of growth at 5 µM [13]: 44.1% | inhibition of growth at 5 µM [14]: 26.8% | inhibition of growth at 10 µM [15]: 66.4% | inhibition of growth at 20 µM [16]: 98.7% | inhibition of growth at 5 µM [17]: 57.7% | inhibition of growth at 20 µM [18]: 99.4% | inhibition of growth at 5 µM [19]: 36.1% | inhibition of growth at […] [20]: 98.2% | inhibition of growth at 20 µM [21]: 100% | inhibition of growth at 10 µM [22]: 87.8% | inhibition of growth at […] [23]: 20.6% | inhibition of growth at 5 µM [24]: 40.6% | inhibition of growth at […] [25]: 89.9% | inhibition of growth at 10 µM [26]: 78.2% | inhibition of growth at 10 µM [27]: 88.7% | inhibition of growth at 20 µM [28]: 99% | inhibition of growth at 10 µM [29]: 69.5% | inhibition of growth at […] [30]: 2.8% | inhibition of growth at 20 µM [31]: 100% | inhibition of growth at […] [32]: -1.97% | inhibition of growth at 10 µM [33]: 92.2% | inhibition of growth at 10 µM [34]: 77.4% | inhibition of growth at 20 µM [35]: 100%

O=C(O)[C@H]1[C@H](c2ccccc2)[C@H](C(=O)Oc2cc(-c3ccc4c(c3)OCO4)ccc2-c2ccccc2)[C@H]1c1ccccc1
inhibition of growth at 20 µM [1]: 99.2% | inhibition of growth at 10 µM [2]: 78.5% | inhibition of growth at 10 µM [3]: 71.9% | inhibition of growth at […] [4]: 99.9% | inhibition of growth at 5 µM [5]: 99.6% | inhibition of growth at 20 µM [6]: 98.1% | inhibition of growth at […] [7]: 10.1% | inhibition of growth at 10 µM [8]: 82.4% | inhibition of growth at 10 µM [9]: 96% | inhibition of growth at 20 µM [10]: 98.2% | inhibition of growth at 5 µM [11]: 72.2% | inhibition of growth at 5 µM [12]: 28.4% | inhibition of growth at 5 µM [13]: 30.9% | inhibition of growth at 5 µM [14]: 24.6% | inhibition of growth at 10 µM [15]: 57.5% | inhibition of growth at 20 µM [16]: 98.2% | inhibition of growth at 5 µM [17]: 35.2% | inhibition of growth at 20 µM [18]: 98.4% | inhibition of growth at 5 µM [19]: 28.3% | inhibition of growth at […] [20]: 98.6% | inhibition of growth at 20 µM [21]: 96.7% | inhibition of growth at 10 µM [22]: 71.7% | inhibition of growth at […] [23]: 12.2% | inhibition of growth at 5 µM [24]: 22.5% | inhibition of growth at […] [25]: 82% | inhibition of growth at 10 µM [26]: 58.6% | inhibition of growth at 10 µM [27]: 92% | inhibition of growth at 20 µM [28]: 98.5% | inhibition of growth at 10 µM [29]: 78.9% | inhibition of growth at […] [30]: 5.2% | inhibition of growth at 20 µM [31]: 97.8% | inhibition of growth at […] [32]: 5.43% | inhibition of growth at 10 µM [33]: 90.8% | inhibition of growth at 10 µM [34]: 83% | inhibition of growth at 20 µM [35]: 97.8%
